From patent publication US9567342B2, “Certain protein kinase inhibitors” (SHANGHAI FOCHON PHARMACEUTICAL CO., LTD., priority 2012, dated 2017)

Test system: SU-DHL-1 cells
Experiment: Inhibition activity of cell proliferation (CCK-8 assay)
Format: cell-based
Settings: Homo sapiens, 72 h exposure
Experimental: SU-DHL-1 cells were seeded in 96-well tissue culture plates. On the next day, cells were exposed to various concentrations of compounds and further cultured for 72 h. Cell proliferation was then determined using Cell Counting Kit-8 [(CCK-8), Dojindo]assay. Briefly, add 10 μL of the CCK-8 solution to each well of the plate. Incubate the plate for 1-4 hours in the incubator. Measure the absorbance at 450 nm using a multi-well spectrophotometer (SpectraMAX 190, Molecular Devices). The inhibition rate (%) was calculated using the following equation: [1−(A450 Compound/A450 Control)]×100%. IC50 values were calculated according to inhibition curve by four-parameter fit.

IC50 | Structure (SMILES)
74.5 nM | COCCN1CCC(c2c(C)cc(Nc3ncc(Cl)c(Nc4ccccc4S(=O)(=O)C(C)C)n3)c3c2C[C@H](C)O3)CC1 [Example 31, (S)-5-chloro-N-4-(2-(isopropylsulfonyl)phenyl)-N-2-(4-(1-(2-methoxyethyl)piperidin-4-yl)-2,5-dimethyl-2,3-dihydrobenzofuran-7-yl)pyrimidine-2,4-diamine]
11.6 nM | CC(=O)N1CCC(c2c(C)cc(Nc3ncc(Cl)c(Nc4ccccc4S(=O)(=O)C(C)C)n3)c3c2C[C@@H](C)O3)CC1 [Example 16, (R)-1-(4-(7-((5-chloro-4-((2-(isopropylsulfonyl)phenyl)amino)pyrimidin-2-yl)amino)-2,5-dimethyl-2,3-dihydrobenzofuran-4-yl)piperidin-1-yl)ethanone]
12.1 nM | Cc1cc(Nc2nc(Nc3ccccc3S(=O)(=O)C(C)C)c3c(C)n[nH]c3n2)c2c(c1C1CCNCC1)C[C@H](C)O2 [Example 5]
52.7 nM | COCC1Cc2c(c(Nc3nc(Nc4ccccc4S(=O)(=O)C(C)C)c4c(C)n[nH]c4n3)cc(C)c2C2CCNCC2)O1 (centres unmarked) [Example 8, N-4-(2-(isopropylsulfonyl)phenyl)-N-6-(2-(methoxymethyl)-5-methyl-4-(piperidin-4-yl)-2,3-dihydrobenzofuran-7-yl)-3-methyl-1H-pyrazolo[3,4-d]pyrimidine-4,6-diamine]
12.3 nM | Cc1cc(Nc2ncc(Cl)c(Nc3ccccc3S(=O)(=O)C(C)C)n2)c2c(c1C1CCN(CCO)CC1)C[C@H](C)O2 [Example 34, (S)-2-(4-(7-((5-chloro-4-((2-(isopropylsulfonyl)phenyl)amino)pyrimidin-2-yl)amino)-2,5-dimethyl-2,3-dihydrobenzofuran-4-yl)piperidin-1-yl)ethanol]
8.3 nM | Cc1cc(Nc2ncc(Cl)c(Nc3ccccc3S(=O)(=O)C(C)C)n2)c2c(c1C1CCN(C[C@H](C)O)CC1)C[C@@H](C)O2 [Example 24, (S)-1-(4-((R)-7-((5-chloro-4-((2-(isopropylsulfonyl)phenyl)amino)pyrimidin-2-yl)amino)-2,5-dimethyl-2,3-dihydrobenzofuran-4-yl)piperidin-1-yl)propan-2-ol]
11.8 nM | Cc1cc(Nc2ncc(Cl)c(Nc3ccccc3S(=O)(=O)C(C)C)n2)c2c(c1C1CCN(CCO)CC1)C[C@@H](C)O2 [Example 33, (R)-2-(4-(7-((5-chloro-4-((2-(isopropylsulfonyl)phenyl)amino)pyrimidin-2-yl)amino)-2,5-dimethyl-2,3-dihydrobenzofuran-4-yl)piperidin-1-yl)ethanol]
26.2 nM | Cc1cc(Nc2ncc(Cl)c(Nc3ccccc3S(=O)(=O)C(C)C)n2)c2c(c1C1CCN(C[C@H](C)O)CC1)C[C@H](C)O2 [Example 36, (S)-1-(4-((S)-7-((5-chloro-4-((2-(isopropylsulfonyl)phenyl)amino)pyrimidin-2-yl)amino)-2,5-dimethyl-2,3-dihydrobenzofuran-4-yl)piperidin-1-yl)propan-2-ol]
36.9 nM | Cc1cc(Nc2ncc(Cl)c(Nc3ccccc3S(=O)(=O)C(C)C)n2)c2c(c1C1CCN(C[C@@H](C)O)CC1)C[C@H](C)O2 [Example 35, (R)-1-(4-((S)-7-((5-chloro-4-((2-(isopropylsulfonyl)phenyl)amino)pyrimidin-2-yl)amino)-2,5-dimethyl-2,3-dihydrobenzofuran-4-yl)piperidin-1-yl)propan-2-ol]
< 0.2 nM | Cc1cc(Nc2ncc(Cl)c(Nc3ccccc3S(=O)(=O)C(C)C)n2)c2c(c1C1CCN(C)CC1)C[C@@H](C)O2 [Example 10, (R)-5-chloro-N-2-(2,5-dimethyl-4-(1-methylpiperidin-4-yl)-2,3-dihydrobenzofuran-7-yl)-N-4-(2-(isopropylsulfonyl)phenyl)pyrimidine-2,4-diamine]
264 nM | CNCC(=O)N1CCC(c2c(C)cc(Nc3ncc(Cl)c(Nc4ccccc4S(=O)(=O)C(C)C)n3)c3c2C[C@H](C)O3)CC1 [Example 44, (S)-1-(4-(7-((5-chloro-4-((2-(isopropylsulfonyl)phenyl)amino)pyrimidin-2-yl)amino)-2,5-dimethyl-2,3-dihydrobenzofuran-4-yl)piperidin-1-yl)-2-(methylamino)ethanone]
13.6 nM | Cc1cc(Nc2ncc(Cl)c(Nc3ccccc3S(=O)(=O)C(C)C)n2)c2c(c1C1CCN(C(=O)[C@H](C)O)CC1)C[C@@H](C)O2 [Example 38, (S)-1-(4-((R)-7-((5-chloro-4-((2-(isopropylsulfonyl)phenyl)amino)pyrimidin-2-yl)amino)-2,5-dimethyl-2,3-dihydrobenzofuran-4-yl)piperidin-1-yl)-2-hydroxypropan-1-one]
< 4.1 nM | Cc1cc(Nc2ncc(Cl)c(Nc3ccccc3S(=O)(=O)C(C)C)n2)c2c(c1C1CCNCC1)CCO2 [Example 13]

Continued, molecule first:

Structure (SMILES) | IC50
Cc1cc(Nc2ncc(Cl)c(Nc3ccccc3S(=O)(=O)C(C)C)n2)c2c(c1C1CCN(CC(=O)O)CC1)C[C@@H](C)O2 [Example 20, (R)-2-(4-(7-((5-chloro-4-((2-(isopropylsulfonyl)phenyl)amino)pyrimidin-2-yl)amino)-2,5-dimethyl-2,3-dihydrobenzofuran-4-yl)piperidin-1-yl)acetic acid] | 61.9 nM
Cc1cc(Nc2ncc(Cl)c(Nc3ccccc3S(=O)(=O)C(C)C)n2)c2c(c1C1CCN(C(=O)CN(C)C)CC1)C[C@H](C)O2 [Example 45, (S)-1-(4-(7-((5-chloro-4-((2-(isopropylsulfonyl)phenyl)amino)pyrimidin-2-yl)amino)-2,5-dimethyl-2,3-dihydrobenzofuran-4-yl)piperidin-1-yl)-2-(dimethylamino)ethanone] | 39.5 nM
CCS(=O)(=O)N1CCC(c2c(C)cc(Nc3ncc(Cl)c(Nc4ccccc4S(=O)(=O)C(C)C)n3)c3c2C[C@@H](C)O3)CC1 [Example 52, (R)-5-chloro-N-2-(4-(1-(ethylsulfonyl)piperidin-4-yl)-2,5-dimethyl-2,3-dihydrobenzofuran-7-yl)-N-4-(2-(isopropylsulfonyl)phenyl)pyrimidine-2,4-diamine] | 59 nM
CCOC(=O)CN1CCC(c2c(C)cc(Nc3ncc(Cl)c(Nc4ccccc4S(=O)(=O)C(C)C)n3)c3c2C[C@H](C)O3)CC1 [Example 41, (S)-ethyl 2-(4-(7-((5-chloro-4-((2-(isopropylsulfonyl)phenyl)amino)pyrimidin-2-yl)amino)-2,5-dimethyl-2,3-dihydrobenzofuran-4-yl)piperidin-1-yl)acetate] | 43.2 nM
CO[C@@H](C)C(=O)N1CCC(c2c(C)cc(Nc3ncc(Cl)c(Nc4ccccc4S(=O)(=O)C(C)C)n3)c3c2C[C@@H](C)O3)CC1 [Example 57, (S)-1-(4-((R)-7-((5-chloro-4-((2-(isopropylsulfonyl)phenyl)amino)pyrimidin-2-yl)amino)-2,5-dimethyl-2,3-dihydrobenzofuran-4-yl)piperidin-1-yl)-2-methoxypropan-1-one] | 32.8 nM
CO[C@@H](C)C(=O)N1CCC(c2c(C)cc(Nc3ncc(Cl)c(Nc4ccccc4S(=O)(=O)C(C)C)n3)c3c2C[C@H](C)O3)CC1 [Example 58, (S)-1-(4-((S)-7-((5-chloro-4-((2-(isopropylsulfonyl)phenyl)amino)pyrimidin-2-yl)amino)-2,5-dimethyl-2,3-dihydrobenzofuran-4-yl)piperidin-1-yl)-2-methoxypropan-1-one] | 141 nM
Cc1cc(Nc2ncc(Cl)c(Nc3ccccc3S(=O)(=O)C(C)C)n2)c2c(c1C1CCN(S(=O)(=O)C(C)C)CC1)C[C@@H](C)O2 [Example 53] | 110 nM
CO[C@H](C)C(=O)N1CCC(c2c(C)cc(Nc3ncc(Cl)c(Nc4ccccc4S(=O)(=O)C(C)C)n3)c3c2C[C@@H](C)O3)CC1 [Example 56, (R)-1-(4-((R)-7-((5-chloro-4-((2-(isopropylsulfonyl)phenyl)amino)pyrimidin-2-yl)amino)-2,5-dimethyl-2,3-dihydrobenzofuran-4-yl)piperidin-1-yl)-2-methoxypropan-1-one] | 26.3 nM
Cc1cc(Nc2ncc(Cl)c(Nc3ccccc3S(=O)(=O)C(C)C)n2)c2c(c1C1CCN(S(=O)(=O)C3CC3)CC1)C[C@@H](C)O2 [Example 54, (R)-5-chloro-N-2-(4-(1-(cyclopropylsulfonyl)piperidin-4-yl)-2,5-dimethyl-2,3-dihdyrobenzofuran-7-yl)-N-4-(2-(isopropylsulfonyl)phenyl)pyrimidine-2,4-diamine] | 333 nM
Cc1cc(Nc2ncc(Cl)c(Nc3ccccc3S(=O)(=O)C(C)C)n2)c2c(c1C1CCN(C(=O)C(C)C)CC1)C[C@@H](C)O2 [Example 50, (R)-1-(4-(7-((5-chloro-4-((2-(isopropylsulfonyl)phenyl)amino)pyrimidin-2-yl)amino)-2,5-dimethyl-2,3-dihydrobenzofuran-4-yl)piperidin-1-yl)-2-methylpropan-1-one] | 81.2 nM
Cc1cc(Nc2ncc(Cl)c(Nc3ccccc3S(=O)(=O)C(C)C)n2)c2c(c1C(=O)N1CCOCC1)C[C@H](C)O2 [Example 48, (S)-(7-((5-chloro-4-((2-(isopropylsulfonyl)phenyl)amino)pyrimidin-2-yl)amino)-2,5-dimethyl-2,3-dihydrobenzofuran-4-yl)(morpholino)methanone] | 219 nM
CO[C@H](C)C(=O)N1CCC(c2c(C)cc(Nc3ncc(Cl)c(Nc4ccccc4S(=O)(=O)C(C)C)n3)c3c2C[C@H](C)O3)CC1 [Example 55, (R)-1-(4-((S)-7-((5-chloro-4-((2-(isopropylsulfonyl)phenyl)amino)pyrimidin-2-yl)amino)-2,5-dimethyl-2,3-dihydrobenzofuran-4-yl)piperidin-1-yl)-2-methoxypropan-1-one] | 35.7 nM
Cc1cc(Nc2ncc(Cl)c(Nc3ccccc3S(=O)(=O)C(C)C)n2)c2c(c1C1CCN(CC(N)=O)CC1)C[C@@H](C)O2 [Example 26, (R)-2-(4-(7-((5-chloro-4-((2-(isopropylsulfonyl)phenyl)amino)pyrimidin-2-yl)amino)-2,5-dimethyl-2,3-dihydrobenzofuran-4-yl)piperidin-1-yl)acetamide] | 13.7 nM
